Measurements reported in US12084444B2, “Spiro-lactam NMDA modulators and methods of using same” (Tenacia Biotechnology (Hong Kong) Co., Limited, priority 2016, dated 2024).

How the values were obtained:
[1] = molecular target: T1, NMDAR2A expressing HEK cell membranes (Homo sapiens, UniProt Q05586+Q12879); assay: NMDAR agonist assay, [3H]MK-801 binding, NMDAR2A; assay type: biochemical; design: key to NMDAR2A B: log EC50: 0=−; ≥1×10^−9 M (e.g., −8)=+; <1×10^−9 M (e.g., −10)=++; conditions: 0.25 h, 50 μM glutamate; read-out: NMDAR2A A: % maximal [3H]MK-801 binding relative to 1 mM glycine
T1 construct: expressed in transfected cells; host or cells: HEK cells (membrane extract)
T1 sequence (Q12879 23-1464, other chains not shown): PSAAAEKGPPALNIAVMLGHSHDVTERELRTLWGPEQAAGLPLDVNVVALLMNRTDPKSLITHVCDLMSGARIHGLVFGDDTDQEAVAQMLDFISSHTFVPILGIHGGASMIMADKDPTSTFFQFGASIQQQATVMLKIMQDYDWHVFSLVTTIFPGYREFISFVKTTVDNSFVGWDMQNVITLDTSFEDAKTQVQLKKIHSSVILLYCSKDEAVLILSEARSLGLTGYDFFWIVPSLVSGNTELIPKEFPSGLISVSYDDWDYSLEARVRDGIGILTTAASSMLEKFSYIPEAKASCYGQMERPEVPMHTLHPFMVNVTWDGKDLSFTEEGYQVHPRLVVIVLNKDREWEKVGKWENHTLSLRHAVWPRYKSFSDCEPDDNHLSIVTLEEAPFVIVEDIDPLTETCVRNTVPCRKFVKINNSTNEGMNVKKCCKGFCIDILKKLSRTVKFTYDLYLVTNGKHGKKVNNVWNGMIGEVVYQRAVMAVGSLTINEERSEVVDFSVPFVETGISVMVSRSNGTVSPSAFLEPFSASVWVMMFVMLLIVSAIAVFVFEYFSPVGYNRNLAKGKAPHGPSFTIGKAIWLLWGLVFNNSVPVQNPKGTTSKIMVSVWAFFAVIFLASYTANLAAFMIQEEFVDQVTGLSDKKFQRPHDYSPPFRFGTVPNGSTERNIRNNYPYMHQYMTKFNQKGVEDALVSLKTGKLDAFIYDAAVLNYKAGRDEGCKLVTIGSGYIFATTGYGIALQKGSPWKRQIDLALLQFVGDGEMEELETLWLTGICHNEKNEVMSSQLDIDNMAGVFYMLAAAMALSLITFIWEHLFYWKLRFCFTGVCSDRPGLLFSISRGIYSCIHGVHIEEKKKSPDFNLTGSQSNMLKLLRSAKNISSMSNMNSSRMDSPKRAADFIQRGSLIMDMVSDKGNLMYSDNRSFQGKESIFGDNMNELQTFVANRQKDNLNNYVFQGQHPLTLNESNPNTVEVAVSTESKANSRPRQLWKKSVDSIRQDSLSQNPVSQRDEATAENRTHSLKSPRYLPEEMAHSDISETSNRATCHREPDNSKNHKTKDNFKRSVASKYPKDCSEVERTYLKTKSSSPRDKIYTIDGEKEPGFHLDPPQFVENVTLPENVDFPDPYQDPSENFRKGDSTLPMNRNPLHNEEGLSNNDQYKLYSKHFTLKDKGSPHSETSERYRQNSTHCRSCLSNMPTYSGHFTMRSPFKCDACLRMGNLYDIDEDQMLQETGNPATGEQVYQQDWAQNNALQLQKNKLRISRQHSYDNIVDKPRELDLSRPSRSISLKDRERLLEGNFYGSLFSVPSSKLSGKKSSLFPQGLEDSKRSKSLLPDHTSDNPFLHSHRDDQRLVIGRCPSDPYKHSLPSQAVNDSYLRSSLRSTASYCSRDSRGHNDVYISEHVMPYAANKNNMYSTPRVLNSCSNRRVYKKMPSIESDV
Summary of the method: (§1)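 HEK membranes (300 μg protein) expressing each subtype were preincubated 15 min at 25 °C with 50 μM glutamate and compound (1×10^−15–1×10^−7 M) or 1 mM glycine. [3H]MK-801 (0.3 μCi) binding then ran 15 min under nonequilibrium conditions, followed by filtration. EC50 and % maximal binding against 1 mM glycine came from three-parameter fits of baseline-subtracted DPM (N=2).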

[2] = molecular target: T2, NMDAR2A expressing HEK cell membranes (Homo sapiens, UniProt Q12879); assay: NMDAR agonist assay, [3H]MK-801 binding, NMDAR2A; assay type: biochemical; design: key to NMDAR2A B: log EC50: 0=−; ≥1×10^−9 M (e.g., −8)=+; <1×10^−9 M (e.g., −10)=++; conditions: 50 μM glutamate
T2 construct: expressed in transfected cells; host or cells: HEK cells (membrane extract)
T2 sequence (Q12879 23-1464, other chains not shown): as above
Summary of the method: as §1

[3] = molecular target: T3, NMDAR2B expressing HEK cell membranes (Homo sapiens, UniProt Q05586+Q13224); assay: NMDAR agonist assay, [3H]MK-801 binding, NMDAR2B; assay type: biochemical; conditions: 50 μM glutamate
T3 construct: expressed in transfected cells; host or cells: HEK cells (membrane extract)
T3 sequence (Q13224 27-1484, other chains not shown): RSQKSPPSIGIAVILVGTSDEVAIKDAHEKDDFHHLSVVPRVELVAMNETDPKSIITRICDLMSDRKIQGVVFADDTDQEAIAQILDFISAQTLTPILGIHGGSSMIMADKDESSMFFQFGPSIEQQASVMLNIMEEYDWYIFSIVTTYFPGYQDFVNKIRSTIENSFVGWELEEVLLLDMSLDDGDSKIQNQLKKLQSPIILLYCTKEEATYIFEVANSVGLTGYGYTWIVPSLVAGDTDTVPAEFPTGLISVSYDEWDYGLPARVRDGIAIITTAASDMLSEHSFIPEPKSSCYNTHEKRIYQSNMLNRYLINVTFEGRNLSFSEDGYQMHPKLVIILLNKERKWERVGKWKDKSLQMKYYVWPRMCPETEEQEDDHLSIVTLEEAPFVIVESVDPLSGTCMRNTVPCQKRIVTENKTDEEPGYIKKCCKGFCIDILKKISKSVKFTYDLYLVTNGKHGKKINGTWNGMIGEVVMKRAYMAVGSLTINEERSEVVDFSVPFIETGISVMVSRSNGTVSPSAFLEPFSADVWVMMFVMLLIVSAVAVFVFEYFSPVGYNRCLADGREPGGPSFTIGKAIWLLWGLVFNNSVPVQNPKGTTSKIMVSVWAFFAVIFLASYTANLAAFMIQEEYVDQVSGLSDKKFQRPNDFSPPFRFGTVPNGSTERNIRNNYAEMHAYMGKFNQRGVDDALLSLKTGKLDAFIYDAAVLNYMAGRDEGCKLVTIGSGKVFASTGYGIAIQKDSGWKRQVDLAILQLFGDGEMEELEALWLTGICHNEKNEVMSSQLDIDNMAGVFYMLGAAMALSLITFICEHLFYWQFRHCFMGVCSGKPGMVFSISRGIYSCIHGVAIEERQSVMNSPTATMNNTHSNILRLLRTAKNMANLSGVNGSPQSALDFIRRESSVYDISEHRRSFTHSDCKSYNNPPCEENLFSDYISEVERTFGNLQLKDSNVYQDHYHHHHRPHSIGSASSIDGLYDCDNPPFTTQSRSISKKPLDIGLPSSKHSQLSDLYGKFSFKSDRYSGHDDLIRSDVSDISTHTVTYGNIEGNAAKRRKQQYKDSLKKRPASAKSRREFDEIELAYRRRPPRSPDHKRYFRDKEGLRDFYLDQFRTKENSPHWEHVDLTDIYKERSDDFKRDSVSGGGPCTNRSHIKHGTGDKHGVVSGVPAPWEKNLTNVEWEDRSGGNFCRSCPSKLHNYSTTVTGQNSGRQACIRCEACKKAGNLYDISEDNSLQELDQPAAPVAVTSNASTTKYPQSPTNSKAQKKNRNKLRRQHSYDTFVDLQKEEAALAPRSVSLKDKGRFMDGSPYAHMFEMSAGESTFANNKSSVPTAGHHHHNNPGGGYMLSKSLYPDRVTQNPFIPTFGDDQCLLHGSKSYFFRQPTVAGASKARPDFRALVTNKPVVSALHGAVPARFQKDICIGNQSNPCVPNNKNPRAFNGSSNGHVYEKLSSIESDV
Summary of the method: as §1

[4] = molecular target: T4, NMDAR2D expressing HEK cell membranes (Homo sapiens, UniProt O15399+Q05586); assay: NMDAR agonist assay, [3H]MK-801 binding, NMDAR2D; assay type: biochemical; conditions: 50 μM glutamate; read-out: NMDAR2D B: log EC50 (converted)
T4 construct: expressed in transfected cells; host or cells: HEK cells (membrane extract)
Description: (§2) Assays were conducted as described by Moskal et al., “GLYX-13: a monoclonal antibody-derived peptide that acts as an N-methyl-D-aspartate receptor modulator,” Neuropharmacology, 49, 1077-87, 2005. These studies were designed to determine if the test compounds act to facilitate NMDAR activation in NMDAR2A, NMDAR2B, NMDAR2C or NMDAR2D expressing HEK cell membranes as measured by increases in [^3H]MK-801 binding.
(§3) In the assay, 300 μg of NMDAR expressing HEK cell membrane extract protein was preincubated for 15 minutes at 25° C. in the presence of saturating concentrations of glutamate (50 μM) and varying concentrations of test compound (1×10^−15 M-1×10^−7 M), or 1 mM glycine. Following the addition of 0.3 μCi of [^3H]MK-801 (22.5 Ci/mmol), reactions were again incubated for 15 minutes at 25° C. (nonequilibrium conditions). Bound and free [^3H]MK-801 were separated via rapid filtration using a Brandel apparatus.
(§4) In analyzing the data, the DPM (disintegrations per minute) of [^3H]MK-801 remaining on the filter were measured for each concentration of test compound or for 1 mM glycine. The DPM values for each concentration of a ligand (N=2) were averaged. The baseline value was determined from the best fit curve of the DPM values modeled using the GraphPad program and the log(agonist) vs. response(three parameters) algorithm was then subtracted from all points in the dataset. The % maximal [^3H]MK-801 binding was then calculated relative to that of 1 mM glycine: all baseline subtracted DPM values were divided by the average value for 1 mM glycine. The EC50 and % maximal activity were then obtained from the best fit curve of the % maximal [^3H]MK-801 binding data modelled using the GraphPad program and the log(agonist) vs. response(three parameters) algorithm.
(§5) The tables below summarize the results for the wild type NMDAR agonists NMDAR2A, NMDAR2B, NMDAR2C, and NMDAR2D, and whether the compound is not an agonist (−), is an agonist (+), or is a strong agonist (++), where column A is based on the % maximal [^3H]MK-801 binding relative to 1 mM glycine (−=0; <100%=+; and >100%=++); and column B is based on log EC50 values (0=−; ≥1×10^−9 M (e.g., −8)=+; and <1×10^−9 M (e.g., −10)=++).

[5] = molecular target: T5, NMDAR2D expressing HEK cell membranes (Homo sapiens, UniProt O15399); assay: NMDAR agonist assay, [3H]MK-801 binding, NMDAR2D; assay type: biochemical; conditions: 50 μM glutamate
T5 construct: expressed in transfected cells; host or cells: HEK cells (membrane extract)
Description: as §2, §3, §4, §5

rats = assay: Positive emotional learning (PEL) test, 50-kHz ultrasonic vocalizations; assay type: in vivo, rat; conditions: dose range 0.001-1 mg/kg, orally; tested one hour after administration
Description: Experiments were conducted as described in Burgdorf et al., “The effect of selective breeding for differential rates of 50-kHz ultrasonic vocalizations on emotional behavior in rats,” Devel. Psychobiol., 51:34-46 (2009). Rat 50-kHz ultrasonic vocalization (hedonic USVs) is a validated model for the study of positive affective state and is best elicited by rough-and-tumble play.
The PEL assay measures the acquisition of positive (hedonic) 50-kHz ultrasonic vocalizations (USVs) to a social stimulus, heterospecific rough and tumble play stimulation. Heterospecific rough-and-tumble play stimulation was administered by the experimenter's right hand. […] High frequency ultrasonic vocalizations (USVs) were recorded and analyzed by sonogram with Avasoft SASlab Pro (Germany) as previously described by Burgdorf et al., “Positive emotional learning is regulated in the medial prefrontal cortex by GluN2B-containing NMDA receptors,” Neuroscience, 192:515-523 (2011). Frequency modulated 50-kHz USVs that occurred during each of the no-stimulation periods were quantified to measure PEL. […] Positive emotional learning was measured during the conditioned stimulus (CS) trials preceding the tickle unconditioned stimulus (UCS) trials. […]

[6] = molecular target: T6, NMDAR2C expressing HEK cell membranes (Homo sapiens, UniProt Q14957); assay: NMDAR agonist assay, [3H]MK-801 binding, NMDAR2C; assay type: biochemical; conditions: 50 μM glutamate
T6 construct: expressed in transfected cells; host or cells: HEK cells (membrane extract)
Description: as §2, §3
as §4, with “algorithm. […]” for “algorithm.”

[7] = Oral pharmacokinetics (plasma, brain, CSF); assay type: in vivo, Sprague Dawley rats; conditions: rat, per os, 10 mg/kg
Description: In another experiment, Sprague Dawley rats were dosed per os using a normal saline formulation containing 10 mg/kg of the compounds identified in the table below. Plasma, brain, and CSF samples were analyzed at various time points over a 24 hour period. The table below summarizes the results of the oral pharmacokinetics.

In the case of `COc1ccc(CN2C[C@@]3(CCNC(=O)C3)C2=O)cc1` [Compound AA-2, 2-(4-methoxybenzyl)-2,7-diazaspiro[3.5]nonane-1,6-dione], the Emax [1] was 0%, the “NMDAR2A B: log EC50” value [2] was “−” and the EC50 ([3]; read-out: NMDAR2B B: log EC50 (converted)) was less than 1 nM. For the same compound, the Emax ([3]; 0.25 h, read-out: NMDAR2B A: % maximal [3H]MK-801 binding relative to 1 mM glycine) was less than 100%, the EC50 [4] was less than 1 nM and the “NMDAR2D A: % maximal [3H]MK-801 binding relative to 1 mM glycine” value [5] was “+ (<100%=+)”. For the same compound, the “maximum effect, mean number of 50 kHz USVs per 15 seconds” value (rats) was 10.1-20 50 kHz USVs per 15 seconds, the “NMDAR2C A: % maximal [3H]MK-801 binding relative to 1 mM glycine” value [6] was “− (−=0)” and the AUC(0-t) ([7]; Sprague Dawley, plasma, po) was 17.3 µg·h/mL. The bioavailability ([7]; Sprague Dawley, plasma, po) was 100%, the Tmax ([7]; Sprague Dawley, plasma, po, normal saline) was 15 min and the Cmax ([7]; Sprague Dawley, po, plasma) was 11.3 µg/mL. The “CSF Cmax” value ([7]; CSF) was 1.4763 µg/mL and the “Brain Cmax” value ([7]; brain) was 1.1072 µg/mL.
